Laboratory results: patent US4440770A, “Diuretic, hypotensive and antiedemic quinoline oximes” (Mochida Seiyaku Kabushiki Kaisha, priority 1980, dated 1984)

Columns and labels:
[1] = Properties of respective derivatives (solubility); format: physicochemical
rats = test: Diuretic effect in rats; format: in vivo, Wister strain male rats; details: Rattus norvegicus, po, 5 h, urine volume up to 5 hours, % of control
Procedure: Wister strain male rats weighing about 200 g were starved overnight and each compound of this invention suspended in 25 ml/kg of physiological saline were administered orally to the 5 animals in each group, and the diuretic effect up to 5 hours after the administration was measured. The diuretic effect is expressed as the average urine volume (%) of the treated group divided by that of the control group.

[2] = system: Carrageenin-Induced Foot Edema; test: Inhibition for carrageenin-induced foot edema in rats; format: in vivo, Wister strain male rats; details: Rattus norvegicus, po, 1 hour before carrageenin, paw volume 3 hours after, probit method, read-out: ED30 (dosage for 30% inhibition of edema)
Procedure: 10 Wister strain male rats weighing about 120 g were used in each group. Each compound of this invention was suspended in a 5% aqueous arabic gum solution and administered orally to the animals. One hour after the administration, 0.1 ml of a 1% solution of carrageenin in physiological saline as a phlogistic agent was subcutaneously injected into the right hind paw of the rats which had been shaven previously. The volume of the right hind paw was measured before the administration of the phlogistic agent and 3 hours after the administration. The intensity of edema expressed as percent increase in the foot volume was calculated from the […] (1) and the percent inhibition of edema was calculated from the equation (2). [formula]
The effective dosage of each compound for inhibiting edema was expressed as ED30 (mg/kg) by calculating the dosage for 30% inhibition from the percent inhibition of edema according to the probit method.

[3] = Acute oral toxicity in mice; details: mouse, in vivo, mortality 7 days after administration
Procedure: 10 ddY Strain male mice weighing about 20 g were used in each group. Each compound of this invention was suspended in a 5% aqueous gum arabic solution and administered orally. The mortality rate (%) was determined from the number of dead animals 7 days after the administration, and the dosage corresponding to 50% mortality was calculated and expressed as LD50 (mg/kg).

Compound	Solubility in ethanol and dichloromethane [1]	Solubility in water and hexane [1]	response vs control in vivo at 10 mg/kg (rats; dosage 10 mg/kg) [%]	response vs control in vivo at 20 mg/kg (rats; dosage 20 mg/kg) [%]	ED30 [2] [mg/kg]	LD50 at 168 h [3] [mg/kg]	response vs control in vivo at 50 mg/kg (rats; dosage 50 mg/kg) [%]
CN(C)C(=O)N1CCC(=NO)c2cc(Cl)ccc21 [XXII, 6-Chloro-4-oximino-1-dimethylcarbamoyl-1,2,3,4-tetrahydroquinoline]	soluble	Sparingly soluble	198	263	34	> 5000	
CN(C)C(=O)N1CCC(=NO)c2cc(Br)ccc21 [XXIII, 6-Bromo-4-oximino-1-dimethylcarbamoyl-1,2,3,4-tetrahydroquinoline]	soluble	Sparingly soluble			51	> 5000	200
